We go through seven molecules from PubChem BioAssay (NCI).

Among the test systems are T-47D breast; MDA-MB-231 breast; HOP-92 NSCLC; SNB-75 CNS; UACC-257 melanoma; 786-0 renal; SK-MEL-28 melanoma; MOLT-4 leukemia; OVCAR-8 ovarian; NCI-H23 lung.
Test in all cases: inhibition of tumour cell growth, NCI panel, 48 h

Each structure is given as a SMILES string.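 Where inhibition never reached the appropriate level, the endpoint shown equals the highest concentration tested. Otherwise, values were interpolated linearly from a five-concentration, 48-hour dose response in 96-well plates. GI50 = concentration required for 50% inhibition of growth. At the TGI there is no net growth.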

Consider `O=C1c2ccccc2-c2c1c1ccccc1c(=O)n2-c1ccccc1`, for which the TGI in the assay on T-47D breast was 46.7 µM; in the assay with MDA-MB-231 breast, 32.4 µM; in the assay on HOP-92 NSCLC, above 50.3 µM; in the assay on SNB-75 CNS, 37.1 µM; in the assay on UACC-257 melanoma, above 100 µM; with 786-0 renal, 10.6 µM. Also, the TGI is above 100 µM in the assay on SK-MEL-28 melanoma, above 100 µM with MOLT-4 leukemia, 27.4 µM in the assay with OVCAR-8 ovarian and 24 µM in the assay with NCI-H23 lung.
With `O=[As]c1ccc(C(=O)c2ccc(Oc3ccccc3)cc2)cc1` (stereo not given), the GI50 in the assay with T-47D breast was 0.0316 µM; in the assay with MDA-MB-231 breast, 0.0547 µM; in the assay with HOP-92 NSCLC, 0.159 µM; in the assay on SNB-75 CNS, 0.0366 µM; in the assay on UACC-257 melanoma it was 0.0431 µM; in the assay with 786-0 renal it was 0.0576 µM. The GI50 was 0.0416 µM with SK-MEL-28 melanoma, 0.0333 µM in the assay on MOLT-4 leukemia, 0.0389 µM with OVCAR-8 ovarian and 0.0751 µM with NCI-H23 lung. Further, the TGI in the assay on T-47D breast turned out to be 0.156 µM; in the assay on MDA-MB-231 breast it was 0.192 µM; in the assay on HOP-92 NSCLC it was 0.361 µM; in the assay with SNB-75 CNS, 0.15 µM; in the assay on UACC-257 melanoma, 0.171 µM; with 786-0 renal, 0.166 µM. Besides, the TGI with SK-MEL-28 melanoma was 0.153 µM; in the assay on MOLT-4 leukemia, 0.19 µM; in the assay with OVCAR-8 ovarian it was 0.146 µM; in the assay with NCI-H23 lung, 0.242 µM.
For `OC(COc1cccc2ccccc12)CN1CCN(c2ccccc2Cl)CC1` (stereo not given), the GI50 with T-47D breast is 13.9 µM; with MDA-MB-231 breast, 10.8 µM; in the assay on HOP-92 NSCLC it was 2.47 µM; with SNB-75 CNS, 11.2 µM; in the assay on UACC-257 melanoma it was 16.5 µM; in the assay on 786-0 renal it was 15.6 µM. The GI50 in the assay with SK-MEL-28 melanoma is 14.5 µM; in the assay on MOLT-4 leukemia it was 12.6 µM; with OVCAR-8 ovarian, 16.6 µM; with NCI-H23 lung, 13.3 µM. The TGI was determined as 29.6 µM in the assay with T-47D breast; 25.5 µM in the assay on MDA-MB-231 breast; 16.8 µM with HOP-92 NSCLC; 24.7 µM in the assay on SNB-75 CNS; 31 µM with UACC-257 melanoma; 30.4 µM in the assay on 786-0 renal. Further, the TGI was determined as 27.9 µM in the assay with SK-MEL-28 melanoma, 59.5 µM in the assay with MOLT-4 leukemia, 32.2 µM in the assay on OVCAR-8 ovarian and 29.8 µM in the assay on NCI-H23 lung.
As for `COc1cc(-c2nn(-c3ccc(NC(=O)c4cc(Cl)cc(Cl)c4)cc3)cc2-c2ccncc2)ccc1Cl`, the GI50 with T-47D breast is above 100 µM; in the assay with MDA-MB-231 breast it was 9.93 µM; in the assay on HOP-92 NSCLC it was above 100 µM; with SNB-75 CNS, 4.14 µM; in the assay on UACC-257 melanoma, above 100 µM; with 786-0 renal, 1.97 µM. Further, the GI50 was above 100 µM with SK-MEL-28 melanoma, 4.83 µM with MOLT-4 leukemia, above 100 µM in the assay on OVCAR-8 ovarian and above 100 µM in the assay on NCI-H23 lung. In addition, the TGI was above 100 µM with T-47D breast; above 100 µM in the assay on MDA-MB-231 breast; above 100 µM with HOP-92 NSCLC; above 100 µM with SNB-75 CNS; above 100 µM with UACC-257 melanoma; 7.66 µM with 786-0 renal. The TGI in the assay on SK-MEL-28 melanoma, with MOLT-4 leukemia, with OVCAR-8 ovarian and with NCI-H23 lung was above 100 µM in each case.
Take `Oc1c(CN2CCOCC2)cc(COCc2ccccc2)c2cccnc12`: the GI50 in the assay with T-47D breast is 2.63 µM; with MDA-MB-231 breast, 6.48 µM; with HOP-92 NSCLC it was 41.6 µM; with SNB-75 CNS it was 10.4 µM; in the assay with UACC-257 melanoma, 2.58 µM; in the assay on 786-0 renal, 2.67 µM. Besides, the GI50 with SK-MEL-28 melanoma was 2.79 µM; in the assay with MOLT-4 leukemia it was 2.57 µM; with OVCAR-8 ovarian, 2.8 µM; with NCI-H23 lung, 3.25 µM. Besides, the TGI in the assay with T-47D breast is above 100 µM; in the assay with MDA-MB-231 breast, above 100 µM; in the assay on HOP-92 NSCLC, above 100 µM; in the assay with SNB-75 CNS it was above 100 µM; in the assay with UACC-257 melanoma, 7.84 µM; in the assay with 786-0 renal, 19.2 µM. The TGI in the assay on SK-MEL-28 melanoma is above 100 µM; in the assay on MOLT-4 leukemia it was 17.7 µM; in the assay on OVCAR-8 ovarian, above 100 µM; in the assay with NCI-H23 lung it was above 100 µM.
In the case of `O=C(CC(=O)c1ccccc1)c1ccccc1`, the GI50 with T-47D breast is 14.9 µM; in the assay on MDA-MB-231 breast, above 100 µM; in the assay with HOP-92 NSCLC, 15.8 µM; in the assay on SNB-75 CNS, 22.9 µM; in the assay with UACC-257 melanoma it was 23.6 µM; with 786-0 renal, 11 µM. The GI50 was 31 µM in the assay with SK-MEL-28 melanoma, 17.3 µM with MOLT-4 leukemia, 20.4 µM in the assay on OVCAR-8 ovarian and 13.6 µM in the assay with NCI-H23 lung. The TGI is 46.1 µM in the assay on T-47D breast; above 100 µM in the assay with MDA-MB-231 breast; 51.3 µM in the assay on HOP-92 NSCLC; above 100 µM in the assay with SNB-75 CNS; 84.5 µM in the assay on UACC-257 melanoma; 43.6 µM with 786-0 renal. Moreover, the TGI in the assay with SK-MEL-28 melanoma is above 100 µM; in the assay on MOLT-4 leukemia it was above 100 µM; in the assay on OVCAR-8 ovarian, above 100 µM; in the assay with NCI-H23 lung, 43.4 µM.
`CCOc1cc(C(C)(C)C)ccc1C1=N[C@@](C)(c2ccc(Cl)cc2)[C@@](C)(c2ccc(Cl)cc2)N1C(=O)N1CCN(CCS(C)(=O)=O)CC1`: the GI50 was 3.7 µM in the assay on T-47D breast; 2.31 µM with MDA-MB-231 breast; 2.28 µM in the assay on HOP-92 NSCLC; 2.51 µM with SNB-75 CNS; 1.1 µM with UACC-257 melanoma; 4 µM in the assay on 786-0 renal. In addition, the GI50 in the assay with SK-MEL-28 melanoma is 3.75 µM; with MOLT-4 leukemia it was 0.751 µM; with OVCAR-8 ovarian, 4.44 µM; in the assay on NCI-H23 lung, 4.69 µM. In addition, the TGI was 57.3 µM with T-47D breast; 7.61 µM in the assay with MDA-MB-231 breast; 8.82 µM in the assay with HOP-92 NSCLC; 14.9 µM in the assay with SNB-75 CNS; 3.72 µM in the assay on UACC-257 melanoma; 14.5 µM in the assay on 786-0 renal. For the same molecule, the TGI amounted to 14.3 µM in the assay on SK-MEL-28 melanoma, 3.96 µM in the assay with MOLT-4 leukemia, 26.5 µM in the assay with OVCAR-8 ovarian and 20.2 µM with NCI-H23 lung.
